This passage reports IC50 results from patent US6689754B1, “Heterocyclic glycyl β-alanine derivatives” (G. D. Searle & Co., priority 1998, dated 2004).

Counter-ions that a name gives are not always drawn.

Assay [1] deals with T1, Human fibrinogen receptor IIb/IIIa (Homo sapiens, UniProt P05106+P08514).
T1 construct: Human fibrinogen receptor ([…]) was purified from outdated platelets; from tissue; host or cells: outdated human platelets
The assay can be described thus: Purified IIb/IIIa receptor assay: solid phase receptor assay, competition with biotinylated vitronectin. It is filed as binding. As to conditions: 1 nM biotinylated vitronectin. The text has this: Purified IIb/IIIa Receptor Assay
Human fibrinogen receptor ([…]) was purified from outdated platelets. (Pytela, R., Pierschbacher, M. D., Argraves, S., Suzuki, S., and Rouslahti, E. “Arginine-Glycine-Aspartic acid adhesion receptors”, Methods in Enzymology 144(1987):475-489.) Human vitronectin was purified from fresh frozen plasma as described in Yatohgo, T., Izumi, M., Kashiwagi, H., and Hayashi, M., “Novel purification of vitronectin from human plasma by heparin affinity chromatography,” Cell Structure and Function 13(1988):281-292. Biotinylated human vitronectin was prepared by coupling NHS-biotin from Pierce Chemical Company (Rockford, Ill.) to purified vitronectin as previously described. (Charo, I. F., Nannizzi, L., Phillips, D. R., Hsu, M. A., Scarborough, R. M., “Inhibition of fibrinogen binding to GP IIb/IIIa by a GP IIIa peptide”, J. Biol. Chem. 266(3)(1991): 1415-1421.) Assay buffer, OPD substrate tablets, and RIA grade BSA were obtained from Sigma (St. Louis, Mo.). Anti-biotin antibody was obtained from Calbiochem (La Jolla, Calif.). Linbro microtiter plates were obtained from Flow Labs (McLean, Vs.). ADP reagent was obtained from Sigma (St. Louis, Mo.).
This assay is essentially the same reported in Niiya, K., Hodson, E., Bader, R., Byers-Ward, V. Koziol, J. A., Plow, E. F. and Ruggeri, Z. M., “Increased surface expression of the membrane glycoprotein IIb/IIIa complex induced by platelet activation: Relationships to the binding of fibrinogen and platelet aggregation”, Blood 70(1987):475-483. The purified human fibrinogen receptor ([…]) was diluted from stock solutions to 1.0 μg/mL in Tris-buffered saline containing 1.0 mM Ca^++, Mg^++, and Mn^++, pH 7.4 (TBS^+++). The diluted receptor was immediately transferred to Linbro microtiter plates at 100 μL/well (100 ng receptor/well). The plates were sealed and incubated overnight at 4° C. to allow the receptor to bind to the wells. All remaining Steps were at room temperature. The assay plates were emptied and 200 μL of 1% RIA grade BSA in TBS^+++ (TBS^+++/BSA) were added to block exposed plastic surfaces. Following a 2 hour incubation, the assay plates were washed with TBS^+++ using a 96 well plate washer. Logarithmic serial dilution of the test compound and controls were made starting at a stock concentration of 2 mM and using 2 nM biotinylated vitronectin in TBS^+++/BSA as the diluent. This premixing of labeled ligand with test (or control) ligand, and subsequent transfer of 50 μL aliquots to the assay plate was carried out with a CETUS Propette robot; the final concentration of the labeled ligand was 1 nM and the highest concentration of test compound was 1.0×10^−4 M. The competition occurred for two hours after which all wells were washed with a plate washer as before. Affinity purified horseradish peroxidase labeled goat anti-biotin antibody was diluted 1:3000 in TBS^+++/BSA and 125 μL were added to each well. After 30 minutes, the plates were washed and incubated with […] substrate in 100 mM/L citrate buffer, pH 5.0. The plate was read with a microtiter plate reader at a wavelength of 450 nm and when the maximum-binding control wells reached an absorbance of about 1.0, the final A450 were recorded for analysis. The data were analyzed using a macro written for use with the EXCELJ spreadsheet program. The mean, standard deviation, and % CV were determined for duplicate concentrations. The mean A450 values were normalized to the mean of four maximum-binding controls (no competitor added)(B-MAX). The normalized values were subjected to a four parameter curve fit algorithm, [Robard et al., Int. Atomic Energy Agency.

Assay [2] has as its target T2, Human vitronectin receptor (αvβ3) (Homo sapiens, UniProt P05106+P06756).
T2 construct: Human vitronectin receptor (αvβ3) was purified from human placenta; from tissue; host or cells: human placenta
Kind of assay: Vitronectin adhesion assay: solid phase receptor assay, competition with biotinylated vitronectin. The class given is binding. As to conditions: purified human vitronectin receptor; 1 nM biotinylated vitronectin. The protocol:
Vitronectin Adhesion Assay
Human vitronectin receptor (αvβ3) was purified from human placenta as previously described [Pytela et al., Methods in Enzymology, 144:475-489 (1987)]. Human vitronectin was purified from fresh frozen plasma as previously described [Yatohgo et al., Cell Structure and Function, 13:281-292 (1988)]. Biotinylated human vitronectin was prepared by coupling NHS-biotin from Pierce Chemical Company (Rockford, Ill.) to purified vitronectin as previously described [Charo et al., J. Biol. Chem., 266(3):1415-1421 (1991)]. Assay buffer, OPD substrate tablets, and RIA grade BSA were obtained from Sigma (St. Louis, Mo.). Anti-biotin antibody was obtained from Calbiochem (La Jolla, Calif.). Linbro microtiter plates were obtained from Flow Labs (McLean, Va.). ADP reagent was obtained from Sigma (St. Louis, Mo.).
This assay was essentially the same as previously reported [Niiya et al., Blood, 70:475-483 (1987)]. The purified human vitronectin receptor (αvβ3) was diluted from stock solutions to 1.0 μg/mL in Tris-buffered saline containing 1.0 mM Ca^++, Mg^++, and Mn^++, pH 7.4 (TBS^+++). The diluted receptor was immediately transferred to Linbro microtiter plates at 100 μL/well (100 ng receptor/well). The plates were sealed and incubated overnight at 4° C. to allow the receptor to bind to the wells. All remaining steps were at room temperature. The assay plates were emptied and 200 μL of 1% RIA grade BSA in TBS^+++ (TBS^+++/BSA) were added to block exposed plastic surfaces. Following a 2 hour incubation, the assay plates were washed with TBS^+++ using a 96 well plate washer. Logarithmic serial dilution of the test compound and controls were made starting at a stock concentration of 2 mM and using 2 nM biotinylated vitronectin in TBS^+++/BSA as the diluent. This premixing of labeled ligand with test (or control) ligand, and subsequent transfer of 50 μL aliquots to the assay plate was carried out with a CETUS Propette robot; the final concentration of the labeled ligand was 1 nM and the highest concentration of test compound was 1.0×10^−4 M. The competition occurred for two hours after which all wells were washed with a plate washer as before. Affinity purified horseradish peroxidase labeled goat anti-biotin antibody was diluted 1:3000 in TBS^+++/BSA and 125 μL were added to each well. After 30 minutes, the plates were washed and incubated with OPD/H2O2 substrate in 100 mM/L Citrate buffer, pH 5.0. The plate was read with a microtiter plate reader at a wavelength of 450 nm and when the maximum-binding control wells reached an absorbance of about 1.0, the final A450 were recorded for analysis. The data were analyzed using a macro written for use with the EXCELJ spreadsheet program. The mean, standard deviation, and % CV were determined for duplicate concentrations. The mean A450 values were normalized to the mean of four maximum-binding controls (no competitor added)(B-MAX). The normalized values were subjected to a four parameter curve fit algorithm [Rodbard et al., Int.

As usually defined, the IC50 is the point on the concentration scale where inhibition reaches its midpoint. With `Cn1nc(C(=O)NCC(=O)NC(CC(=O)O)c2cc(Cl)cc(Cl)c2O)cc1NC1=NCCN1` (stereo not drawn) [Example 24, N-[[(4,5-dihydro-1H-imidazol-2-yl)amino]-1-methyl-1H-pyrazol-3yl]carbonyl]glycyl-3-(3,5-dichloro-2-hydroxyphenyl)-β-alanine, (trifluoroacetate) salt], the values for the IC50 in assay [1] and in assay [2] were 15800 nM and 91200 nM, respectively.

With `O=C(O)C[C@H](NC(=O)CNC(=O)c1cncc(N=C2NCC(O)CN2)c1)c1cc(Cl)cc(Br)c1O` (some centres unmarked) [Example 9], the IC50 in assay [1] was found to be 244 nM; in assay [2] it was 0.18 nM.

On to `O=C(O)C[C@H](NC(=O)CNC(=O)c1c[nH]c(=O)c(NC2=NCCN2)c1)c1cc(Br)cc(Br)c1O` [Example 36], for which the IC50 was found to be 970 nM in assay [1] and 1.13 nM in assay [2].

Take `O=C(O)C[C@H](NC(=O)CNC(=O)c1sccc1CNC1=NCC(O)CN1)c1cc(Cl)cc(Cl)c1O` (some centres unmarked) [Example 45]: the IC50 in assay [1] is 1680 nM; in assay [2], 1090 nM.

Turning to `Nc1ncc(C(=O)NCC(=O)NC(CC(=O)O)c2cc(Cl)cc(Cl)c2O)cc1NC1=NCC(O)CN1` (centres unmarked) [Example 44], the values for the IC50 in assay [1] and in assay [2] were 1060 nM and 42.1 nM, respectively.

For the molecule `O=C(O)CC(NC(=O)CNC(=O)c1cncc(NC2=NCC(O)CN2)c1)c1cc(Cl)cc(Br)c1O` (centres unmarked) [Example 32], the IC50 came out at 49 nM in assay [1] and 2.1 nM in assay [2].

As to `O=C(O)C[C@H](NC(=O)CNC(=O)c1cncc(NC2=NCC(O)CN2)c1)c1cc(Br)cc(I)c1O` (some centres unmarked) [Example 26], the IC50 in assay [1] was determined as 831 nM; in assay [2], 0.71 nM.
